{"source": "paper PMC7076382", "about": "(Pharmaceutics, 2020)", "key": {"[1]": {"tested_on": "rat intestine", "settings": "cited from earlier work; for effect on permeation of small model drugs: caprate at 2 and 5 mg/mL"}, "[2]": {"tested_on": "jejunal segment", "assay": "Single-pass intestinal perfusion (SPIP), jejunal lumen-to-blood effective permeability (Peff)", "settings": "any investigated luminal concentration: SDS 5 mg/mL; caprate 5, 10, 20 mg/mL", "protocol": "(§1) In short, male Wistar Han rats (strain 273) from Charles River Co. (Cologne, Germany), weight 270–363 g, were used. On the study day, the rats were anesthetized using an intraperitoneal injection of a 5% w/v thiobutabarbital solution (180 mg/kg). Body temperature was maintained at 37.5 ± 0.5 °C. To validate the condition of the animal, the systemic arterial blood pressure was continuously recorded by connecting the arterial catheter to a transducer operating a PowerLab system (AD Instruments, Hastings, UK).\n(§2) At the SPIP experiment, the abdomen was opened along the midline and a jejunal segment of 10–15 cm was cannulated, covered with polyethylene wrap, and placed outside the abdomen. The bile duct was cannulated to avoid pancreaticobiliary secretion into the duodenum. […] During the first 30 min following surgery, each intestinal segment was single-passed perfused with 37 °C phosphate buffered saline (6 mM, pH 6.5 or 7.4). […] The length of the intestinal segment was measured after the jejunal cannulation as was the wet tissue weight of the segment after the experiment. The perfusion rate was at all times 0.2 mL/min (peristaltic pump, Gilson Minipuls 3, Le Bel, France).\n(§3) Each perfusate experiment was divided into two parts. […] The 10 and 20 mg/mL concentrations (suspensions) were used to evaluate if concentrations above saturation had any impact on membrane permeability.\n(§4) The five experiments were designed such that each rat was its own control. The experimental period started with a rapid filling (<30 s) of the whole segment with the perfusate (about 1.5 mL for a 10 cm segment). The intestinal segment and perfusates were kept at 37 °C, and all outgoing perfusate was collected and weighed at 15-min intervals.\n(§5) In short, an input rate was acquired by deconvolution of the plasma concentration–time profiles following the intestinal perfusion. […] From the input rate, an absorption rate was then calculated by compensating for first-pass extraction (Ffirstpass) of each compound in the rat intestine and liver. […] Plasma CL values were derived from the two-compartment analysis of the intravenous plasma data and an assumed rat liver blood flow of 47 mL/min/kg [24]. The Peff (cm/s) was then calculated by relating the absorption rate to the intestinal luminal area using Equation (2):(2) Peff=absorption rate/A × C where A is the area of the exposed intestinal segment described as a smooth cylinder with a radius of 0.2 cm and C is the concentration entering the luminal segment. Peff was evaluated from 0 to 135 min, and the mean Peff value of the two perfusion periods (60-min control and 75-min test) was regarded as representative for each individual rat.\n(§6) Peff and CLCr-EDTA values, are expressed as the mean ± standard deviation (SD) or standard error of the mean (SEM). […]"}, "[3]": {"tested_on": "jejunal segment", "assay": "Blood-to-lumen jejunal 51Cr-EDTA clearance (CLCr-EDTA) during SPIP", "protocol": "as §2\nLuminal perfusates and blood plasma at 0 and 135 min were analyzed for ^51Cr activity (cpm) in a gamma counter (1282 Compugamma CS, Pharmacia AB, Uppsala, Sweden). A linear regression analysis of the plasma samples was made to obtain a corresponding plasma value for each perfusate sample. […] CLCr-EDTA was determined during the last 45 min for the control solution and during the last 60 min for the test solutions (the first 15 min in each period was for equilibration). […]\nas §6"}, "[4]": {"tested_on": "colonic", "settings": "cited from earlier work"}, "[5]": {"tested_on": "intestinal lumen", "design": "method as in PMID 29758344", "settings": "caprate dose of 11.4 mg/mL, formulation pH 6.5 and 7.4; cited from earlier work"}, "[6]": {"tested_on": "Caco-2 model", "design": "method as in PMID 11578108", "settings": "cited from earlier work"}, "[7]": {"assay": "Single-pass intestinal perfusion (SPIP), jejunal lumen-to-blood effective permeability (Peff)", "settings": "male, Wistar Han, rat, other: single-pass jejunal perfusion", "protocol": "as §1, §2, §3, §4, §5, §6"}, "[8]": {"settings": "cited from earlier work; for Log D6.5: pH 6.5; for Log D7.4: pH 7.4"}, "[9]": {"settings": "rat, in vivo, iv", "protocol": "(§7) Blood samples of <0.3 mL were collected from the femoral artery for a maximum volume of 4 mL during each experiment. All sampled blood volumes were replaced by an equivalent volume of saline (0.9% NaCl) containing 70 mg/mL bovine serum albumin. For the intravenous administration, blood was sampled over 6 h (at 5, 10, 20, 40, 60, 90 min and at 2, 4, and 6 h). […] The blood samples were put on ice and centrifuged (5000× g, 3 min at 4 °C) within 10 min of sampling; 100 μL of the plasma was transferred to 0.5 mL micro tubes and stored at −80 °C until analysis.\n(§8) Plasma CL values were derived from the two-compartment analysis of the intravenous plasma data and an assumed rat liver blood flow of 47 mL/min/kg [24].\n(§9) The plate was vortex-mixed for 10 min (pulse 1200) after which it was centrifuged for 10 min at 2862× g. The supernatants were then injected into the UHPLC-MS/MS system. The column used was an Acquity UPLC Peptide BEH C18 (50 × 2.1 mm length × inner diameter, 1.7 µm particle size) from Waters Corp. (Milford, MA, USA). The mobile phase consisted of (A) 0.1% formic acid in water and (B) 0.1% formic acid in acetonitrile. Gradient elution was initially 2.0% B for 0.50 min, with a linear increase to 90% B for 1.5 min, held constant at 90% B for 0.30 min, then back to 2.0% B in 0.30 min, and constant again at 2.0% B for 0.40 min. The total run time was 3.0 min."}, "[10]": {"assay": "in vivo", "settings": "rat, iv", "protocol": "as §7, §8, §9"}, "[11]": {"settings": "rat", "protocol": "as §1, §2, §3, §4, §5, §6"}, "[12]": {"tested_on": "jejunal segment", "settings": "rat", "protocol": "as §1, §2, §3, §4, §5, §6"}, "[13]": {"settings": "rat, in vivo, iv", "remark": "listed apart in the source", "protocol": "as §7, §8, §9"}, "[14]": {"tested_on": "rat liver", "settings": "in vivo; cited from earlier work"}, "[15]": {"tested_on": "serine protease", "design": "method as in PMID 9643439, PMID 11578108", "settings": "rat, pefabloc SC at 0.3 mg/mL; cited from earlier work"}, "[16]": {"settings": "dog, in vivo, po, 600 mg; cited from earlier work"}, "[17]": {"settings": "n-octanol-water, source not given"}}, "note": "Where two headings read alike, the source gives them in different places. Non-standard residues stand in square brackets, D forms with d. Residues, ends and D or L forms follow the SMILES beside them. dTrp(2-Me) = Cc1[nH]c2ccccc2c1C[C@@H](N)C(=O)O", "data": [{"compound": "CCCCCCCCCCCCOS(=O)(=O)[O-].[Na+]", "note": "[SDS, sodium dodecyl sulfate]", "values": [{"measurement": "pH dependence of the effect on the permeability of enalaprilat and CLCr-EDTA", "setting": "[1]; SDS at 5 mg/mL, pH 6.5 vs. 7.4", "value": "unaffected by pH"}, {"measurement": "increase of absorption of atenolol", "setting": "[1]; SDS at 5 mg/mL, rat SPIP", "value": 10, "unit": "fold"}, {"measurement": "increase of absorption of enalaprilat", "setting": "[1]; SDS at 5 mg/mL, rat SPIP", "value": 40, "unit": "fold"}, {"measurement": "increase of absorption of ketoprofen", "setting": "[1]; SDS at 5 mg/mL, rat SPIP", "value": "not at all"}, {"measurement": "effect on lumen-to-blood transport of four low permeation model compounds and on CLCr-EDTA", "setting": "[1]; SPIP model, acyclovir, atenolol, enalaprilat, phenol red", "value": "increase the lumen-to-blood transport"}, {"measurement": "effect on permeation of small model drugs", "setting": "[1]; rat SPIP, SDS at 5 mg/mL", "value": "increases permeation in both absorptive and secretory directions"}, {"measurement": "effect on hexarelin absorption (Peff ratio of hexarelin)", "setting": "[2]", "value": "Neither SDS nor caprate at any of the investigated luminal concentrations enhanced absorption"}, {"measurement": "CLCr-EDTA ratio (test vs. control period)", "setting": "[3]; permeation enhancer at 5 mg/mL, pH 7.4, solution", "value": "significant increase"}]}, {"compound": "O=C([O-])CN(CCN(CC(=O)[O-])CC(=O)[O-])CC(=O)[O-].[51Cr+3]", "note": "[^51Cr-EDTA, ^51Chromium-labeled ethylenediaminetetraacetate]", "values": [{"measurement": "CLCr-EDTA (blood-to-lumen clearance)", "setting": "[3]; control solution, mean ± SD, n = 24", "value": "0.092 ± 0.039", "unit": "mL/min/100 g"}]}, {"compound": "CCCCCCCCCC(=O)[O-].[Na+]", "note": "[caprate, sodium caprate]", "values": [{"measurement": "effect of caprate when pH was increased from 6.5 to 7.4", "setting": "[4]; 4 mg/mL caprate, rectal perfusion study", "value": "increased"}, {"measurement": "human colonic Peff", "setting": "[4]", "value": "1.4 ± 0.4 × 10^−4 cm/s"}, {"measurement": "absorption-enhancing effect", "setting": "[5]", "value": "no effect"}, {"measurement": "absorption-enhancing effect on small low permeability model compounds", "setting": "[1]; caprate at 2 mg/mL, rat jejunal SPIP", "value": "did not observe any absorption-enhancing effect"}, {"measurement": "effective caprate concentrations", "setting": "[1]; rat SPIP model", "value": "4 to 20", "unit": "mg/mL"}, {"measurement": "effect on permeation of small model drugs", "setting": "[1]; rat SPIP, SDS at 5 mg/mL", "value": "does not"}, {"measurement": "increase of apparent permeability of hexarelin", "setting": "[6]", "value": "over 200 fold"}]}, {"compound": "C[C@H](N[C@@H](CCc1ccccc1)C(=O)O)C(=O)N1CCC[C@H]1C(=O)O", "note": "[enalaprilat]", "values": [{"measurement": "basal permeability", "setting": "[1]; rat SPIP", "value": 1.1, "unit": "×10⁻⁶ cm/s"}, {"measurement": "Papp at 100 µM", "setting": "[7]", "value": "1.3 ± 0.9", "unit": "×10⁻⁶ cm/s"}, {"measurement": "Log D6.5", "setting": "[8]; [17]", "value": "−1.0"}, {"measurement": "Log D7.4", "setting": "[8]; [17]", "value": "−1.0"}, {"measurement": "C1 (intercept of first term)", "setting": "[9]", "value": "428.6 (449.1/408.0) nM"}, {"measurement": "C2 (intercept of second term)", "setting": "[9]", "value": "87.7 (105.5/70.0) nM"}, {"measurement": "λ1 (slope of first term)", "setting": "[9]", "value": "3.9 (4.6/3.3) h^−1"}, {"measurement": "λ2 (slope of second term)", "setting": "[9]", "value": "0.38 (0.45/0.31) h^−1"}, {"measurement": "clearance", "setting": "[10]", "value": 3, "unit": "mL/min"}]}, {"compound": "Cc1[nH]c2ccccc2c1C[C@@H](NC(=O)[C@@H](N)Cc1cnc[nH]1)C(=O)N[C@@H](C)C(=O)N[C@@H](Cc1c[nH]c2ccccc12)C(=O)N[C@H](Cc1ccccc1)C(=O)N[C@@H](CCCCN)C(N)=O", "note": "[hexarelin] (H-H[dTrp(2-Me)]AW[dF]K-NH2)", "values": [{"measurement": "Log D6.5", "setting": "[8]", "value": "−3.40"}, {"measurement": "Log D7.4", "setting": "[8]", "value": "−2.26"}, {"measurement": "Papp", "setting": "[11]", "value": "0.19 ± 0.14", "unit": "×10⁻⁶ cm/s"}, {"measurement": "permeability at pH 6.5 compared to pH 7.4", "setting": "[12]", "value": "lower at pH 6.5 compared to pH 7.4"}, {"measurement": "C1 (intercept of first term)", "setting": "[9]", "value": "355.2 (416.9/293.5) nM"}, {"measurement": "C2 (intercept of second term)", "setting": "[9]", "value": "133.7 (149.1/118.3) nM"}, {"measurement": "λ1 (slope of first term)", "setting": "[9]", "value": "13.7 (17.5/10.0) h^−1"}, {"measurement": "λ2 (slope of second term)", "setting": "[9]", "value": "2.08 (2.26/1.91) h^−1"}, {"measurement": "clearance", "setting": "[13]", "value": 10.3, "unit": "mL/min"}, {"measurement": "Ffirstpass (first-pass extraction)", "setting": "[14]", "value": 0.63}]}, {"compound": "CC(C(=O)O)c1cccc(C(=O)c2ccccc2)c1", "note": "(centres unmarked) [ketoprofen]", "values": [{"measurement": "basal permeability", "setting": "[1]; rat SPIP", "value": 160, "unit": "×10⁻⁶ cm/s"}]}, {"compound": "Cl.NCCc1ccc(S(=O)(=O)F)cc1", "note": "[pefabloc SC]", "values": [{"measurement": "inhibition of intestinal degradation of hexarelin", "setting": "[15]", "value": "completely inhibits"}]}, {"compound": "semaglutide", "values": [{"measurement": "bioavailability", "setting": "[16]", "value": 0.29, "unit": "%"}]}]}
